By IC50 is commonly meant the concentration needed to halve the response being measured.

For assay [1], the target named is PI3K. The assay can be described thus: PI3K lipid kinase activity, Adapta TR-FRET assay with purified enzyme. Format: biochemical. Particulars: for IC50: read-out: PI3K inhibition IC50. The method, then: (§1) Quantitation of PI3K lipid kinase activity of a present compound is determined with purified enzyme using the fluorescence-based Adapta™ TR-FRET assay from InVitrogen (Wisconsin, USA). Quantitation of MEK1 kinase activity of a present compound is determined with purified enzyme using the LanthaScreen® displacement binding assay (Tracer 236) from InVitrogen (Wisconsin, USA). Cellular screening is carried in cultured Panc-1 cells treated for 1 hour with varied doses of the test compound. Effects on pERK and pAKT expression are evaluated by immunoblotting using phospho-specific antibodies (pAKT [Ser473] and pERK1/2 [Thr202/Tyr204]) from Cell Signaling Technology.
(§2) In Vitro Biochemical and Cell-Based Assays. Detection of PI3K lipid kinase activity was conducted with purified enzyme using the fluorescence-based Adapta™ TR-FRET assay from Invitrogen (Wisconsin, USA). Detection of the MEK1 kinase activity was conducted with purified enzyme using the LanthaScreen® displacement binding assay (Tracer 236) from Invitrogen (Wisconsin, USA). Evaluation of off-target kinase activity was conducted against the kinase screening panel provided by Invitrogen (Wisconsin, USA).
On the technique in general: TR-FRET usually uses a lanthanide donor and a delayed reading to cut background.

The target in assay [2] is MEK1 (Homo sapiens, UniProt Q02750). The assay can be described thus: MEK1 LanthaScreen displacement binding assay (Tracer 236) with purified enzyme. To be noted: in vitro, read-out: MEK inhibition IC50.
Assay [3] has as its system PI3K isoforms. The assay can be described thus: PI3K isoform potency. The format is biochemical. Here is the method:
as §2

Assay [4] deals with T1, AurB (Homo sapiens, UniProt Q96GD4).
T1 construct: purchased Invitrogen
Description: Off-target kinase selectivity panel (Invitrogen). To be noted: read-out: IC50 against AurB. Format: biochemical. Here is the method: as §2

Assay [5] has as its target T2, EGFR (Homo sapiens, UniProt P00533).
T2 construct: purchased Invitrogen
Description: Off-target kinase selectivity panel (Invitrogen). Format: biochemical. To be noted: read-out: IC50 against EGFR. Here is the method: as §2

Assay [6] has as its target ERK. The assay can be described thus: Off-target kinase selectivity panel (Invitrogen). Format: biochemical. Particulars: read-out: IC50 against ERK. The method, then:
as §2

Assay [7] addresses T3, PKCα (Homo sapiens, UniProt P17252).
T3 construct: purchased Invitrogen
Description: Off-target kinase selectivity panel (Invitrogen). To be noted: read-out: IC50 against PKCα. Format: biochemical. The method, then: as §2

For assay [8], the system named is pERK1/2 [Thr202/Tyr204]. The assay can be described thus: Cellular pERK expression by immunoblotting in Panc-1 cells. To be noted: Panc-1 cells treated for 1 hour, immunoblot. Format: cell-based. Here is the method: as §1
(§3) Cells were cultured in Dulbecco's Modified Eagle's Medium (DMEM) and 10% FBS, and grown in a 37° C. incubator with 5% CO2. Cells were plated at 3×10^5 cells/well in 6 well plates, and the following day were treated for 1 hr at 37° C. Cells were lysed in 50 mM Tris, 1% NP-40, 150 mM NaCl, 10% glycerol, 1 mM EDTA with 1× protease inhibitor (complete; Roche Applied Science) and phosphatase inhibitors (PhosSTOP, Roche Applied Science). Protein concentration was determined with a Dc Protein Assay Kit (BioRad). Proteins were resolved by SDS-PAGE and transferred to nitrocellulose membranes. […]

Assay [9] relates to pAKT [Ser473]. Description: Cellular pAKT expression by immunoblotting in Panc-1 cells. The format is cell-based. To be noted: Panc-1 cells treated for 1 hour, immunoblot. Here is the method: as §1, §3
In general terms: In western blotting, separated proteins are transferred to a membrane and probed.

T2 sequence (P00533 25-1210): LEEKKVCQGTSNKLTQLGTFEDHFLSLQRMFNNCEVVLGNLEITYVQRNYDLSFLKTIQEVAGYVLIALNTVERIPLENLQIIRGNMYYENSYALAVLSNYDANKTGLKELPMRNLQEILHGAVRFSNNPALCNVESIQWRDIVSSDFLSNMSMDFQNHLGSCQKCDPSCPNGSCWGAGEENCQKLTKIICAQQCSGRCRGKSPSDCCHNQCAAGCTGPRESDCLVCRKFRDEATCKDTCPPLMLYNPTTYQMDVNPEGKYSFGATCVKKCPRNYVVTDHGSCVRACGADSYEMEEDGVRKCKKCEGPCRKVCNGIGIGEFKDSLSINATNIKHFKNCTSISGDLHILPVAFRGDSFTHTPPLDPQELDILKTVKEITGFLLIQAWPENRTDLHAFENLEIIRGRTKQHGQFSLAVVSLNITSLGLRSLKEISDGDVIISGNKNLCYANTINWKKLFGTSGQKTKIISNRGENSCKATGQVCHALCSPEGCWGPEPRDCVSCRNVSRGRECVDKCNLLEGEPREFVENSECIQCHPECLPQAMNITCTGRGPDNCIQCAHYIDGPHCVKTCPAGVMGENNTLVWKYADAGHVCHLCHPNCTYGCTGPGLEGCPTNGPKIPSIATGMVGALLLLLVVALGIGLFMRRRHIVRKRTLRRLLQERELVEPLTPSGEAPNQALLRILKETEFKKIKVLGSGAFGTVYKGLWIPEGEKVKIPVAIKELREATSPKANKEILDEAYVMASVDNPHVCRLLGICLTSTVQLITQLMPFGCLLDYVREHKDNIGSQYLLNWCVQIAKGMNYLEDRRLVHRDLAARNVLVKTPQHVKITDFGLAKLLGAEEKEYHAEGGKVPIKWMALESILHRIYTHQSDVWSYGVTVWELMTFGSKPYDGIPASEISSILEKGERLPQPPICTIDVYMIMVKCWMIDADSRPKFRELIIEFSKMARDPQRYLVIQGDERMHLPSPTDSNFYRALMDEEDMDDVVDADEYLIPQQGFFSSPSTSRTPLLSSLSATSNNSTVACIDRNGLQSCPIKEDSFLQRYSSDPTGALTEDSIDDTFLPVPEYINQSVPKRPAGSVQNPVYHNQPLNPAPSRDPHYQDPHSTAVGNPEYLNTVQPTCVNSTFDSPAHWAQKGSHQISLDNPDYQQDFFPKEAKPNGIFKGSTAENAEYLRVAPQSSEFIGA
MEK1, sequence (Q02750 whole entry, canonical isoform): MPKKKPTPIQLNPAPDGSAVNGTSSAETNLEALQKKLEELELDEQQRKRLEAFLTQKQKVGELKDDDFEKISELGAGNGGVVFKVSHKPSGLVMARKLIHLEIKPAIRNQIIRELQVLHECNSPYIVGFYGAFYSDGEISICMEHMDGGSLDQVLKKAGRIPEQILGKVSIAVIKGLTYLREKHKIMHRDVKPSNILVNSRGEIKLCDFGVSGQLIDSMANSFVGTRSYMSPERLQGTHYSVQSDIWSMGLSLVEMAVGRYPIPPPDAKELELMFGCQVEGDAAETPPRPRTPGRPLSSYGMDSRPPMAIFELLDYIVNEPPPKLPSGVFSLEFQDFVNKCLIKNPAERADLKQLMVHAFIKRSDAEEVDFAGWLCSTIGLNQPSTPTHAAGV
T1 sequence (Q96GD4 whole entry): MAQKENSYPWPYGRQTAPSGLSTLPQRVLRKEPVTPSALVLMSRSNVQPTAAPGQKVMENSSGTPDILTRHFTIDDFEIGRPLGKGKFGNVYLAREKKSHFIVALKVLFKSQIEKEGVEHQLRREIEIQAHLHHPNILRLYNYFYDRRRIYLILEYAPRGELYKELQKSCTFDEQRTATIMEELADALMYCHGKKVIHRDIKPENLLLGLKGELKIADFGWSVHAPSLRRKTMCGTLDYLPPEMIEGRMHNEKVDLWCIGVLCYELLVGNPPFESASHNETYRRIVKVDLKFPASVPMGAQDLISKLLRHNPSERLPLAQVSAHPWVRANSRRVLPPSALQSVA

Take `FC(F)c1nc2ccccc2n1-c1nc(N2CCNCC2)nc(N2CCOCC2)n1` [MV3-42B]: the half-maximal inhibitory concentration (IC50) in assay [1] (in vitro, purified enzyme) was determined as 100 nM.
Take `O=C(CCCCC[N+](=O)[O-])N1CCN(c2nc(N3CCOCC3)nc(-n3c(C(F)F)nc4ccccc43)n2)CC1` [MV3-44B]: in assay [1] (in vitro, purified enzyme, bound printed without a number), the “PI3K inhibition IC50” value is listed as “>μM”.
`NCCCCCC(=O)N1CCN(c2nc(N3CCOCC3)nc(-n3c(C(F)F)nc4ccccc43)n2)CC1` [MV3-46A]: the IC50 in assay [1] (in vitro, purified enzyme) is less than 100 nM. Further, the “improvement in PI3K binding affinity” value in assay [1] (nitro group (MV3-44B) converted to amino group) is recorded as 10 fold.
`Cc1c(Cc2cccc(N(C)S(=O)(=O)CCCNCCCCCC(=O)N3CCN(c4nc(N5CCOCC5)nc(-n5c(C(F)F)nc6ccccc65)n4)CC3)c2)c(=O)oc2cc(OC(=O)N(C)C)ccc12` [MV3-65A]: the IC50 in assay [1] (in vitro, purified enzyme) is 370 nM; in assay [2] it was 501 nM; in assay [4], greater than 10 µM; in assay [5] it was greater than 10 µM; in assay [6] it was greater than 10 µM; in assay [7], greater than 10 µM. Besides, the “potency against all of the PI3K isoforms” value in assay [3] is on record as “comparably potent against all of the PI3K isoforms”. In addition, the “cellular inhibition of pERK expression” value in [8] was “cellular inhibition of both pERK and pAKT expression was observed”. Besides, the “cellular inhibition of pAKT expression” value in assay [9] was “cellular inhibition of both pERK and pAKT expression was observed”.

The values above are taken from patent US9611258B2, “Dual MEK/PI3K inhibitors and therapeutic methods using the same” (THE REGENTS OF THE UNIVERSITY OF MICHIGAN, priority 2013, dated 2017).
